Experimental data: ChEMBL document CHEMBL1147029, “Probing binding requirements of NAD kinase with modified substrate (NAD) analogues” (Bioorg Med Chem Lett, 2007)

Columns and labels:
[1] = target: T1, NAD kinase (Mycobacterium tuberculosis) (UniProt P9WHV7); assay: Inhibition of Mycobacterium tuberculosis NAD kinase at 1 mM
T1 sequence (whole entry): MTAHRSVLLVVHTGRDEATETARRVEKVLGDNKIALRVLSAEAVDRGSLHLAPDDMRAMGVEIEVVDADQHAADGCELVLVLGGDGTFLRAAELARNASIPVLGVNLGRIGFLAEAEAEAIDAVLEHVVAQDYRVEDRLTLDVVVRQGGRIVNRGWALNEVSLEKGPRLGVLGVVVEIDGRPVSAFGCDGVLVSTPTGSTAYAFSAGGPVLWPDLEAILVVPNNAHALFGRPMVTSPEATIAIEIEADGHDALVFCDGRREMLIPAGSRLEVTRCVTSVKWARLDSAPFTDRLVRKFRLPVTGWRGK

[2] = target: T1, NAD kinase (Mycobacterium tuberculosis); assay: Inhibition of Mycobacterium tuberculosis NAD kinase at 2 mM

NC(=O)c1ccc[n+]([C@@H]2O[C@H](COP(=O)(O)OP(=O)(O)OC[C@H]3O[C@@H](n4cnc5c(N)ncnc54)[C@@H](O)[C@@H]3O)[C@@H](O)[C@H]2O)c1
inhibition [1]: 40%

NC(=O)c1ccc[n+]([C@@H]2O[C@H](COP(=O)(O)OP(=O)(O)OC[C@H]3O[C@@H](n4cnc5c(N)ncnc54)[C@H](F)[C@@H]3O)[C@@H](O)[C@H]2O)c1
inhibition [1]: < 10%

NC(=O)c1cccc([C@@H]2O[C@H](COP(=O)(O)OP(=O)(O)OC[C@H]3O[C@@H](n4cnc5c(N)ncnc54)[C@H](O)[C@@H]3O)[C@@H](O)[C@H]2O)c1
inhibition [1]: < 10% | inhibition [2]: 37%

O=C(CBr)c1ccccn1
inhibition [1]: 63%

NC(=O)c1ccc[n+]([C@@H]2O[C@H](COP(=O)(O)OP(=O)(O)OC[C@H]3O[C@@H](n4cnc5c(N)ncnc54)[C@@H](F)[C@@H]3O)[C@@H](O)[C@H]2O)c1
inhibition [1]: < 10%

O=C(CBr)c1cccnc1
inhibition [1]: 30%

O=C(CBr)c1ccncc1
inhibition [1]: 40%
